Molecules are shown by their SMILES.

This assay deals with calpain. Put plainly: inhibition of calpain in vitro (rate of hydrolysis of synthetic fluorogenic substrates). It is filed as biochemical. The settings on record: percent decrease in rate of substrate hydrolysis. The method, then: The assays were performed using synthetic fluorogenic substrates. Inhibition of enzyme activity was calculated on the percent decrease in the rate of substrate hydrolysis in the presence of inhibitor relative to the rate in its absence. IC50s (nM) were calculated.
In turn, `Cn1c(C(=O)N[C@H](C=O)Cc2ccccc2)cc2ccccc21` [Example 1, (S)-N-(1-formyl-2-phenylethyl)-1-methyl-2-indolecarboxamide] showed an IC50 of 500 nM.

As to `O=C[C@H](Cc1ccccc1)NC(=O)c1cc2ccccc2[nH]1` [Example 2, (S)-N-(1-formyl-2-phenylethyl)-2-indolecarboxamide], the IC50 is 600 nM. The same measure for `COc1cc2cc(C(=O)N[C@H](C=O)Cc3ccccc3)[nH]c2cc1OCc1ccccc1` [Example 3, (S)-N-(1-formyl-2-phenylethyl)-5-methoxy-6-(phenylmethoxy)-2-indolecarboxamide]: 135 nM; for `O=C[C@H](Cc1ccccc1)NC(=O)c1cc2cc(Br)ccc2[nH]1` [Example 4, (S)-5-bromo-N-(1-formyl-2-phenylethyl)-2-indolecarboxamide]: 230 nM. The same measure for `CS(=O)(=O)n1c(C(=O)N[C@H](C=O)Cc2ccccc2)cc2ccccc21` [Example 5, (S)-N-(1-formyl-2-phenylethyl)-1-(methylsulfonyl)-2-indolecarboxamide]: 600 nM; for `O=C[C@H](Cc1ccccc1)NC(=O)c1cc2ccccc2n1Cc1ccccc1` [Example 6, (S)-N-(1-formyl-2-phenylethyl)-1-(phenylmethyl)-2-indolecarboxamide]: 500 nM. The same measure for `COc1ccc2cc(C(=O)N[C@H](C=O)Cc3ccccc3)[nH]c2c1` [Example 7, (S)-N-(1-formyl-2-phenylethyl)-6-methoxy-2-indolecarboxamide]: 600 nM; for `Cc1c(C(=O)N[C@H](C=O)Cc2ccccc2)n(Cc2ccccc2)c2ccccc12` [Example 8, (S)-N-(1-formyl-2-phenylethyl)-3-methyl-1-(phenylmethyl)-2-indolecarboxamide]: 30 nM.

Source of the values: patent US6214856A, “Indolecarboxamides, pharmaceutical compositions and methods of inhibiting calpain” (SmithKline Beecham Corporation, priority 1999, dated 2001).
